Reference: patent EP2899280A1, “Process for the enzymatic production of oligo-/polyesters” (Ernst-Moritz-Arndt-Universität Greifswald, priority 2014, dated 2015)

Experiment: Autohydrolysis of ε-CL (pH-STAT titration)
Assay type: physicochemical
Details: Distilled water (pH 7.0), 30 °C, based on 100 mM ε-CL as 100 %
Procedure: All measurements were done with the 877 Titrino Plus from Metrohm (Filderstadt, Germany).
Using the pH-STAT, the autohydrolysis of ε-CL at different temperatures and pH values was determined. Furthermore, it was investigated whether CAL-A is able to hydrolyze ε-CL in an aqueous reaction system. The Bacillus subtilis esterase 2 (BS2) served as positive control in the hydrolysis of ε-caprolactone to 6-hydroxycaproic acid leading to a measureable pH change in the pH-STAT.
For the determination of autohydrolysis, 100 mM ε-CL (Sigma-Aldrich, St- Louis, United States; 97 % purity) were dissolved in 20 ml Tris-HCl buffer (20 mM, pH 7.5) or 20 ml distilled water. The measurement was carried out at 25°C and 30°C over 15 min. For titration, 0.1 N NaOH was used to maintain the pH value constant.

## O=C1CCCCCO1 [ε-CL, ε-caprolactone]
  Conversion [%] (autohydrolysis): 1.075 ± 0,00090%
